Assay results: patent publication US8952024B2, “Herbicidal pyrimidone derivatives” (E I du Pont de Nemours and Company, priority 2009, dated 2015)

Experiments:
Format in all cases: in vivo
[1] = test system: blackgrass (Alopecurus myosuroides); assay: Test B pre-/postemergence plant response
Procedure, shortened: (§1)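 Plants treated either at seeding (loam/sand soil) or postemergence at 2 to 18 cm height, using a surfactant-containing non-phytotoxic solvent formulation. Evaluation was visual after 13 to 15 days, 0 to 100 scale relative to controls.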

[2] = test system: wheat (Triticum aestivum); assay: Test B pre-/postemergence plant response
Procedure, shortened: as §1

[3] = test system: pigweed (Amaranthus retroflexus); assay: Test B pre-/postemergence plant response
Procedure, shortened: as §1

[4] = test system: green foxtail (Setaria viridis); assay: Test B pre-/postemergence plant response
Procedure, shortened: as §1

[5] = test system: morningglory (Ipomoea coccinea); assay: Test B pre-/postemergence plant response
Procedure, shortened: as §1

soybean (Glycine max) = assay: Test B pre-/postemergence plant response
Procedure, shortened: as §1

[6] = test system: goosegrass (Eleusine indica); assay: Test B pre-/postemergence plant response
Procedure, shortened: as §1

[7] = test system: bermudagrass (Cynodon dactylon); assay: Test B pre-/postemergence plant response
Procedure, shortened: as §1

[8] = test system: ragweed (common ragweed, Ambrosia elatior); assay: Test B pre-/postemergence plant response
Procedure, shortened: as §1

[9] = test system: velvetleaf (Abutilon theophrasti); assay: Test B pre-/postemergence plant response
Procedure, shortened: as §1

[10] = test system: giant foxtail (Setaria faberii); assay: Test B pre-/postemergence plant response
Procedure, shortened: as §1

corn (Zea mays) = assay: Test B pre-/postemergence plant response
Procedure, shortened: as §1

[11] = test system: Italian ryegrass (Lolium multiflorum); assay: Test B pre-/postemergence plant response
Procedure, shortened: as §1

[12] = test system: johnsongrass (Sorghum halepense); assay: Test B pre-/postemergence plant response
Procedure, shortened: as §1

[13] = test system: downy bromegrass (Bromus tectorum); assay: Test B pre-/postemergence plant response
Procedure, shortened: as §1

[14] = test system: winter barley (Hordeum vulgare); assay: Test B postemergence plant response; conditions: Postemergence
Procedure, shortened: (§2)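 Plants grown in peat/vermiculite medium were sprayed postemergence at 2–18 cm height (1- to 4-leaf stage). After 13–15 days in the greenhouse, response was rated visually against untreated controls on a 0–100 scale (0 no effect, 100 complete control).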

[15] = test system: canarygrass (Phalaris minor); assay: Test B postemergence plant response; conditions: Postemergence
Procedure, shortened: as §2

[16] = test system: chickweed (Stellaria media); assay: Test B postemergence plant response; conditions: Postemergence
Procedure, shortened: as §2

[17] = Postemergence, 31 g ai/ha, 0 to 100 scale (0 no effect, 100 complete control)
[18] = Postemergence, 125 g ai/ha, scale 0 to 100 (0 no effect, 100 complete control)
[19] = Postemergence, 250 g ai/ha, scale 0 to 100 (0 no effect, 100 complete control), 13 to 15 days
[20] = Postemergence, 62 g ai/ha, scale 0 to 100 (0 no effect, 100 complete control)
[21] = Preemergence, 31 g ai/ha, scale 0 to 100 (0 no effect, 100 complete control)
[22] = Preemergence, 62 g ai/ha, scale 0 to 100, 0 no effect, 100 complete control
[23] = Preemergence, 125 g ai/ha, scale 0 to 100, 0 no effect, 100 complete control
[24] = Preemergence, 250 g ai/ha, 0 to 100 scale
[25] = 31 g ai/ha, 0 to 100 scale (0 no effect, 100 complete control)
[26] = 125 g ai/ha, scale 0 to 100 (0 no effect, 100 complete control)
[27] = 250 g ai/ha, scale 0 to 100 (0 no effect, 100 complete control), 13 to 15 days
[28] = 62 g ai/ha, scale 0 to 100 (0 no effect, 100 complete control)

`CCCc1ncc(C(=O)C2=C(O)CCCC2=O)c(=O)n1-c1ccccc1` [Compound 217] was tested, and the “Plant response rating, Blackgrass” value [1, 17] was 0, the “Plant response rating, Blackgrass” value [1, 18] was 30 and the “Plant response rating, Blackgrass” value [1, 19] was 30. The “Plant response rating, Blackgrass” value [1, 20] was 5, the “Plant response rating, Blackgrass” value [1, 21] was 0 and the “Plant response rating, Blackgrass” value [1, 22] was 0. The “Plant response rating, Blackgrass” value [1, 23] was 0, the “Blackgrass plant response rating” value [1, 24] was 0 and the “Plant response rating, Wheat” value [2, 17] was 30. For the same compound, the “Plant response rating, Wheat” value [2, 19] was 50, the “Plant response rating, Wheat” value [2, 20] was 45 and the “Plant response rating, Wheat” value [2, 21] was 0. For the same compound, the “Plant response rating, Wheat” value [2, 22] was 0, the “Plant response rating, Wheat” value [2, 23] was 0 and the “Wheat plant response rating” value [2, 24] was 0. The “Plant response rating, Pigweed” value [3, 17] was 85, the “Plant response rating, Pigweed” value [3, 19] was 100 and the “Plant response rating, Pigweed” value [3, 20] was 100. The “Plant response rating, Pigweed” value [3, 21] was 95, the “Plant response rating, Pigweed” value [3, 22] was 100 and the “Plant response rating, Pigweed” value [3, 23] was 100. The “Pigweed plant response rating” value [3, 24] was 100, the “Plant response rating, Foxtail, Green” value [4, 17] was 55 and the “Plant response rating, Foxtail, Green” value [4, 18] was 85. The “Plant response rating, Foxtail, Green” value [4, 19] was 90, the “Plant response rating, Foxtail, Green” value [4, 20] was 60 and the “Plant response rating, Foxtail, Green” value [4, 21] was 0. The “Plant response rating, Foxtail, Green” value [4, 22] was 0, the “Plant response rating, Foxtail, Green” value [4, 23] was 0 and the “Foxtail, Green plant response rating” value [4, 24] was 90. The “Plant response rating, Morningglory” value [5, 17] was 70, the “Plant response rating, Morningglory” value [5, 18] was 80 and the “Plant response rating, Morningglory” value [5, 19] was 80. The “Plant response rating, Morningglory” value [5, 20] was 75, the “Plant response rating, Morningglory” value [5, 21] was 0 and the “Plant response rating, Morningglory” value [5, 22] was 0. For the same compound, the “Plant response rating, Morningglory” value [5, 23] was 0, the “Morningglory plant response rating” value [5, 24] was 0 and the “Plant response rating, Soybean” value (soybean (Glycine max); [17]) was 75. For the same compound, the “Plant response rating, Soybean” value (soybean (Glycine max); [19]) was 98, the “Plant response rating, Soybean” value (soybean (Glycine max); [20]) was 85 and the “Plant response rating, Soybean” value (soybean (Glycine max); [21]) was 0. For the same compound, the “Plant response rating, Soybean” value (soybean (Glycine max); [22]) was 0, the “Plant response rating, Soybean” value (soybean (Glycine max); [23]) was 0 and the “Soybean plant response rating” value (soybean (Glycine max); [24]) was 0. For the same compound, the “Plant response rating, Goosegrass” value [6, 17] was 80, the “Plant response rating, Goosegrass” value [6, 18] was 85 and the “Plant response rating, Goosegrass” value [6, 19] was 95. The “Plant response rating, Goosegrass” value [6, 20] was 80, the “Plant response rating, Goosegrass” value [6, 21] was 95 and the “Plant response rating, Goosegrass” value [6, 22] was 98. For the same compound, the “Plant response rating, Goosegrass” value [6, 23] was 100, the “Goosegrass plant response rating” value [6, 24] was 100 and the “Plant response rating, Bermudagrass” value [7, 17] was 70. For the same compound, the “Plant response rating, Bermudagrass” value [7, 18] was 98, the “Plant response rating, Bermudagrass” value [7, 19] was 100 and the “Plant response rating, Bermudagrass” value [7, 20] was 85. The “Plant response rating, Bermudagrass” value [7, 21] was 98, the “Plant response rating, Bermudagrass” value [7, 22] was 100 and the “Plant response rating, Bermudagrass” value [7, 23] was 100. The “Bermudagrass plant response rating” value ([7]; Preemergence, 250 g ai/ha, 0 to 100 scale, 0 no effect, 100 complete control) was 100, the “Plant response rating, Ragweed” value [8, 17] was 80 and the “Plant response rating, Ragweed” value [8, 19] was 98. The “Plant response rating, Ragweed” value [8, 20] was 80, the “Plant response rating, Ragweed” value [8, 21] was 60 and the “Plant response rating, Ragweed” value [8, 22] was 60. For the same compound, the “Plant response rating, Ragweed” value [8, 23] was 90, the “Ragweed plant response rating” value [8, 24] was 95 and the “Plant response rating, Velvetleaf” value [9, 17] was 98. The “Plant response rating, Velvetleaf” value [9, 19] was 100, the “Plant response rating, Velvetleaf” value [9, 20] was 98 and the “Plant response rating, Velvetleaf” value [9, 21] was 95. The “Plant response rating, Velvetleaf” value [9, 22] was 100, the “Plant response rating, Velvetleaf” value [9, 23] was 100 and the “Velvetleaf plant response rating” value [9, 24] was 100. For the same compound, the “Plant response rating, Foxtail, Giant” value [10, 17] was 70, the “Plant response rating, Foxtail, Giant” value [10, 18] was 85 and the “Plant response rating, Foxtail, Giant” value [10, 19] was 90. For the same compound, the “Plant response rating, Foxtail, Giant” value [10, 20] was 75, the “Plant response rating, Foxtail, Giant” value [10, 21] was 5 and the “Plant response rating, Foxtail, Giant” value [10, 22] was 40. The “Plant response rating, Foxtail, Giant” value [10, 23] was 75, the “Foxtail, Giant plant response rating” value [10, 24] was 85 and the “Plant response rating, Corn” value (corn (Zea mays); [17]) was 0. The “Plant response rating, Corn” value (corn (Zea mays); [18]) was 25, the “Plant response rating, Corn” value (corn (Zea mays); [19]) was 35 and the “Plant response rating, Corn” value (corn (Zea mays); [20]) was 10. The “Plant response rating, Corn” value (corn (Zea mays); [21]) was 0, the “Plant response rating, Corn” value (corn (Zea mays); [22]) was 0 and the “Plant response rating, Corn” value (corn (Zea mays); [23]) was 0. For the same compound, the “Corn plant response rating” value (corn (Zea mays); [24]) was 0, the “Plant response rating, Ryegrass, Italian” value [11, 17] was 0 and the “Plant response rating, Ryegrass, Italian” value [11, 19] was 40. For the same compound, the “Plant response rating, Ryegrass, Italian” value [11, 20] was 30, the “Plant response rating, Ryegrass, Italian” value [11, 21] was 0 and the “Plant response rating, Ryegrass, Italian” value [11, 22] was 0. For the same compound, the “Plant response rating, Ryegrass, Italian” value [11, 23] was 5, the “Ryegrass, Italian plant response rating” value [11, 24] was 10 and the “Plant response rating, Johnsongrass” value [12, 17] was 0. The “Plant response rating, Johnsongrass” value [12, 18] was 60, the “Plant response rating, Johnsongrass” value [12, 19] was 65 and the “Plant response rating, Johnsongrass” value [12, 20] was 60. For the same compound, the “Plant response rating, Johnsongrass” value [12, 21] was 0, the “Plant response rating, Johnsongrass” value [12, 22] was 5 and the “Plant response rating, Johnsongrass” value [12, 23] was 20. For the same compound, the “Johnsongrass plant response rating” value [12, 24] was 55, the “Plant response rating, Bromegrass, Downy” value [13, 17] was 10 and the “Plant response rating, Bromegrass, Downy” value [13, 18] was 40. For the same compound, the “Plant response rating, Bromegrass, Downy” value [13, 19] was 65, the “Plant response rating, Bromegrass, Downy” value [13, 20] was 15 and the “Plant response rating, Bromegrass, Downy” value [13, 21] was 0. The “Plant response rating, Bromegrass, Downy” value [13, 22] was 0, the “Plant response rating, Bromegrass, Downy” value [13, 23] was 0 and the “Bromegrass, Downy plant response rating” value [13, 24] was 0. For the same compound, the “Plant response rating, Barley” value [14, 25] was 0, the “Plant response rating, Barley” value [14, 26] was 10 and the “Plant response rating, Barley” value [14, 27] was 10. The “Plant response rating, Barley” value [14, 28] was 5, the “Plant response rating, Canarygrass” value [15, 25] was 0 and the “Plant response rating, Canarygrass” value [15, 26] was 20. The “Plant response rating, Canarygrass” value [15, 27] was 20, the “Plant response rating, Canarygrass” value [15, 28] was 20 and the “Plant response rating, Chickweed” value [16, 25] was 75. For the same compound, the “Plant response rating, Chickweed” value [16, 26] was 100, the “Plant response rating, Chickweed” value [16, 27] was 100 and the “Plant response rating, Chickweed” value [16, 28] was 95.
